Like-named read-outs stand apart in the source and are kept apart here.
How the values were obtained:
[1] = system: mature adipocytes (3T3-L1 cells); assay: Synergistic enhancing action by polygodial and insulin on glucose uptake; type: cell-based; conditions: FIG. 21
Experimental: The amount of 2-deoxyglucose uptake into mature adipocytes stimulated with the sample in the adipocytes was determined partly in accordance with the method described in Example 1 as the evaluation of synergistic enhancing action by a low-concentration polygodial and a low-concentration insulin on glucose uptake.
The mature adipocytes were prepared according to the method described in Example 1.
After the termination of the culture, the medium was removed, and the cells were washed twice with a Dulbecco's modified Eagle's medium containing 0.1% (w/v) bovine serum albumin. Thereafter, the cells were cultured at 37° C. overnight in the presence of 5% carbonic dioxide gas. After the overnight culture, the cells were washed twice with a HEPES buffered saline (140 mM NaCl, 5 mM KCl, 2.5 mM MgSO4, 1 mM CaCl2, 20 mM HEPES-Na (pH 7.4)). The amount 0.9 mL of the same buffer was added thereto. The cells were cultured at 37° C. for 45 minutes. Subsequently, polygodial was added thereto so as to have a final concentration of 300 nM, and insulin was added thereto so as to have a final concentration of 0.05 μg/mL. The cells were further cultured for 30 minutes. […] In addition, a group without addition of the sample was used as a negative control. Thereafter, the amount of 2-deoxy-[1,2-^3H(N)]-glucose taken into the adipocytes was determined in the same manner as in the method described in Example 1.

ICR mice = conditions: for Blood Glucose Level, Before Administration of Sample: ICR mice fasted 18 hours, Mean ± Standard Error; for Blood Glucose Level, Before Glucose Tolerance Test: 1 hour after
Experimental: After fasting the mice for 18 hours, polygodial was dissolved in an olive oil so as to have a concentration of 0.3%, and the solution was forcibly orally administered to the mice at 10 mg/kg weight. An olive oil was administered to each of mice in the control group at 3.3 mL/kg weight in the same manner. After 1 hour from the administration, a 20% glucose solution was administered at 2 g/kg weight. Here, the glucose was administered in two ways, forcible oral administration and intraperitoneal administration. Before administration of the sample, before the glucose tolerance test, and after given periods of time after the glucose tolerance test, blood was collected from the vein of mouse tails, and a blood glucose level was determined.

KK-Ay mice = system: KK-Ay mice
Experimental: Pathological amelioration of polygodial was examined using a type II diabetes model mice. Experiments were carried out with ten male 5-week old KK-Ay mice (CLEA Japan, Inc.) per group. Polygodial was dissolved in an olive oil so as to have a concentration of 0.03%, and the solution was forcibly orally administered to the mice once a day at 1 mg/kg weight for consecutive days. An olive oil was administered to each of mice in the control group at 3.3 mL/kg weight in the same manner. On the day before the beginning of administration and on the twenty-first day, blood was collected from the vein of mouse tails, and a blood glucose level was determined with a simple blood glucose meter, ACCU-CHEK Compact (manufactured by Roche Diagnostics K.K.). In addition, on the twenty-second day, blood was collected from the abdominal aorta, and the insulin concentration in serum was determined with Lebis Insulin Kit (manufactured by Shibayagi Co., Ltd.).

mouse = assay: Single-dose oral toxicity in mouse; type: in vivo; conditions: 1 g/kg weight
Experimental: No toxicity is found even when the above-mentioned effective ingredient used in the present invention is administered in an effective dose for the exhibition of its action.

[2] = system: glucose transporter (mature adipocytes); assay: Influence of cytochalasin B on 2-deoxyglucose uptake in mature adipocytes; type: cell-based
Experimental: Specifically, as a sample, there was set a group with addition of a dimethyl sulfoxide solution of polygodial so as to have a final concentration of 3 μM. […] Furthermore, in each group, there was set a group with addition of cytochalasin B (manufactured by Nacalai Tesque, Inc., 10435-81) so as to have a final concentration 40 μM at the same time as the time of addition of the sample and insulin. Thereafter, the amount of 2-deoxy-[1,2-^3H(N)]-glucose taken into the adipocytes was determined in the same manner.

[3] = system: mature adipocytes (3T3-L1 cells); assay: Enhancing action on glucose uptake: 2-deoxyglucose uptake into mature adipocytes; type: cell-based; conditions: final concentration 3 μM, 1 μM, 0.3 μM or 0.1 μM; FIG. 1
Experimental: The induction of differentiation into mature adipocytes was carried out by partially modifying the method of Rubin C. S. et al. (JBC. 253 7570-7578, 1978). 3T3-L1 cells (ATCC CCL-92.1) were suspended in a 10% calf serum (manufactured by ICN)-containing Dulbecco's modified Eagle's medium (manufactured by Sigma, D6046) containing 200 μM ascorbic acid so as to have a density of 4×10^3 cells/mL, and the suspension was put in each well of a 12-well microtiter plate in an amount of 2 mL per well. The cells were cultured at 37° C. for 7 days in the presence of 5% carbon dioxide gas. On the seventh day, the medium was exchanged with […] of a 10% fetal bovine serum (manufactured by GIBCO)-containing Dulbecco's modified Eagle's medium containing 200 μM ascorbic acid, 0.25 μM dexamethasone, 10 μg/mL insulin (manufactured by TAKARA BIO INC.) and 0.5 mM 3-isobutyl-1-methylxanthine (manufactured by Nacalai Tesque, Inc., 19624-86). After 45 hours, the medium was exchanged with 2 mL of a 10% fetal bovine serum-containing Dulbecco's modified Eagle's medium containing 200 μM ascorbic acid and 5 μg/mL insulin. The medium was exchanged on after 2 days and 5 days, and the cells were cultured for 7 days, to give mature adipocytes.
As the evaluation of enhancing action on glucose uptake, and also as the evaluation of insulin-mimetic action, the amount of 2-deoxyglucose uptake into mature adipocytes stimulated with the sample in the adipocytes was determined.
After the termination of the culture, the medium was removed, and the cells were washed twice with a 0.1% (w/v) bovine serum albumin (manufactured by Sigma, A8022)-containing Dulbecco's modified Eagle's medium. Thereafter, 1 mL of the same medium was put to each well. The cells were cultured overnight at 37° C. in the presence of 5% carbon dioxide gas. After the overnight culture, the cells were washed twice with a HEPES buffered saline (140 mM NaCl, 5 mM KCl, 2.5 mM MgSO4, 1 mM CaCl2, 20 mM HEPES-Na (pH 7.4)), and 0.9 mL of the same buffer was added thereto. The cells were cultured at 37° C. for 75 minutes. […] […] Thereafter, 100 μL of a HEPES buffered saline containing 2-deoxy-[1,2-^3H(N)]-glucose (manufactured by PerkinElmer Life Sciences Inc., NET549A) and 1 mM 2-deoxyglucose (manufactured by Nacalai Tesque, Inc., 10722-11) was added thereto at a final concentration of 0.5 μCi/mL, and the cells were further cultured at 37° C. for 10 minutes. After the termination of the culture, the supernatant was removed, the cells were washed three times with a phosphate buffer cooled to 4° C., and 0.5 mL of a 1% Nonidet P-40-containing phosphate buffer was added to lyse the cells, whereby 2-deoxy-[1,2-^3H(N)]-glucose taken into the cells was eluted. The radioactivity was determined with a liquid scintillation counter LS6500 (manufactured by Beckmann) using 25 μL of the supernatant with Ultima Gold (manufactured by PerkinElmer Life Sciences Inc., 6013329) as a scintillation cocktail.

[4] = polygodial 10 mg/kg orally, glucose 2 g/kg by forcible oral administration
[5] = polygodial 10 mg/kg orally, glucose 2 g/kg by intraperitoneal administration
[6] = 1 mg/kg weight orally once a day, KK-Ay mice

CC1(C)CCC[C@]2(C)[C@@H](C=O)C(C=O)=CC[C@@H]12 [polygodial]
enhancing action on glucose uptake by simultaneous addition with insulin ([1]; polygodial 300 nM added simultaneously with insulin 0.05 μg/mL, versus either alone): synergistically increase | 2-deoxy-[1,2-3H(N)]-glucose uptake compared to the negative control ([1]; polygodial 300 nM alone): enhancement of 2-deoxy-[1,2-^3H(N)]-glucose uptake was found | Blood Glucose Level, Before Administration of Sample (ICR mice; glucose by forcible oral administration): 94 ± 7 mg/dL | Blood Glucose Level, Before Administration of Sample (ICR mice; glucose by intraperitoneal administration): 77 ± 4 mg/dL | Blood Glucose Level, Before Glucose Tolerance Test (ICR mice; polygodial 10 mg/kg orally, glucose by forcible oral administration): 126 ± 7 mg/dL | Blood Glucose Level, Before Glucose Tolerance Test (ICR mice; polygodial 10 mg/kg orally, glucose by intraperitoneal administration): 90 ± 7 mg/dL | Blood Glucose Level, 30 min. After Glucose Tolerance Test (ICR mice; [4]): 260 ± 15 mg/dL | Blood Glucose Level, 60 min. After Glucose Tolerance Test (ICR mice; [4]): 224 ± 18 mg/dL | Blood Glucose Level, 120 min. After Glucose Tolerance Test (ICR mice; [4]): 138 ± 9 mg/dL | Blood Glucose Level, 30 min. After Glucose Tolerance Test (ICR mice; [5]): 300 ± 56 mg/dL | Blood Glucose Level, 60 min. After Glucose Tolerance Test (ICR mice; [5]): 263 ± 34 mg/dL | Blood Glucose Level, 120 min. After Glucose Tolerance Test (ICR mice; [5]): 126 ± 10 mg/dL | Blood Glucose Level, 180 min. After Glucose Tolerance Test (ICR mice; [5]): 84 ± 5 mg/dL | action on the elevation in the blood glucose level (in words) (ICR mice; polygodial 10 mg/kg weight, both oral and intraperitoneal administrations of glucose): suppressive action | action of ameliorating insulin resistance (KK-Ay mice; [6]): action of ameliorating insulin resistance was found | blood glucose level (in words) (KK-Ay mice; [6]): lowered | insulin concentration (in words) (KK-Ay mice; [6]): lowered | Blood Glucose Level, Twenty-First Day (KK-Ay mice; 1 mg/kg weight orally once a day, twenty-first day, KK-Ay mice, Mean ± Standard Error): 231 ± 36 mg/dL | Insulin (concentration in serum) (KK-Ay mice; 1 mg/kg weight orally once a day, twenty-second day, KK-Ay mice, Mean ± Standard Error): 8.4 ± 4 ng/mL | Blood Glucose Level, Previous Day (KK-Ay mice; day before the beginning of administration, KK-Ay mice, Mean ± Standard Error): 328 ± 25 mg/dL | changes in weight and general symptoms (KK-Ay mice; during the experimental period, 1 mg/kg weight orally once a day): no changes were found | deaths after oral administration (mouse): no cases of deaths are found | 2-deoxy-[1,2-3H(N)]-glucose uptake compared to the negative control [2]: enhancement of 2-deoxy-[1,2-^3H(N)]-glucose uptake was found | mediation of the enhancing action on glucose uptake [2]: mediated by a glucose transporter | 2-deoxy-[1,2-3H(N)]-glucose uptake compared to the negative control [3]: enhancement of 2-deoxy-[1,2-^3H(N)]-glucose uptake was found
